# Source: US20170027877A1, “DRUG COMPOSITION AND METHOD FOR PREPARING THE SAME” (priority 2015, published 2017)
# Experiment: Test for encapsulating rate of drugs in nanoparticles encapsulating double drugs
# Format: physicochemical
# Settings: trend as pH of the aqueous mixture solution increased (pH 7.5 to 11, FIG. 1)
# Protocol: The synthesized nanoparticles encapsulating double drugs were placed in a concentrating centrifuge tube, and perform centrifugation at a speed of 4,000 rpm for 30 minutes.
# (1). Encapsulating Rate of Cisplatin
# The clear solution in the concentrating centrifuge tube was diluted 20 folds and mixed with 0.14% solution of o-phenylenediamine in dimethylformamide at a ratio of 1:1, the mixture was heated at 100° C. for 30 minutes and then was cooled in a refrigerator at −20° C. for 10 minutes, finally, the solution was examined for the peak value at a wavelength of 705 nm with UV-visual spectrum, and content of non-encapsulated Cisplatin was converted from the peak value, thereby giving the encapsulating rate of Cisplatin.
# (2). Encapsulating Rate Test of Demethoxycurcumin
# The nanoparticles on the filter membrane of the concentrating centrifuge tube were re-dissolved in double-distilled water, the solution was mixed with methanol at a ratio of 1:1, and the mixture was analyzed using HPLC. The determination was performed at a flow rate of 1 mL/min under the detection condition at a wavelength of 425 nm, using C18 as stationary phase and acetonitrile-0.3% FA (50:50, v/v) as mobile phase, and the detection result was converted into the concentration of demethoxycurcumin to obtain the encapsulating rate of the drug.
compound,measurement,value
N.N.[Cl][Pt][Cl] [Cisplatin],encapsulating rate,increased
